Test results reported in patent US20110213038A1, “CONTROL OF BED BUGS” (priority 2008, published 2011).

Experiments:
[1] = test system: adult bed bugs Cimex lectularius; experiment: Vapor exposure of concealed bed bugs (folded mattress ticking) in sealed jar, 72 hour mortality; format: in vivo; settings: one drop (about 25-30 mg) on filter paper in sealed 16 oz. glass jar
Method: This test was conducted using concealed bed bugs. One drop (about 25-30 mg) of a naturally occurring aromatic test compound was applied to a filter paper and placed with a 16 oz. glass jar (3½ inches diameter×3⅞ inches high) containing ten adult bed bugs Cimex lectularius of both sexes. A piece of folded mattress ticking was also placed in the jar to allow the bed bugs a place to hide. The jar was then sealed with a plastic lid. Five replicates of ten bed bugs were exposed to each of the test compounds. Mortality was assessed at 72 hours. A control jar with no test compound was also included in the testing. The mortality results were as follows.

[2] = test system: adult bed bugs Cimex lectularius; experiment: Vapor exposure of unconcealed bed bugs in sealed jar, 24 hour mortality; format: in vivo; settings: one drop (about 25-30 mg) on filter paper in sealed 16 oz. glass jar
Method: This test was undertaken employing unconcealed bed bugs. One drop (about 25-30 mg) of a naturally occurring aromatic test compound was applied to a filter paper and placed with a 16 oz. glass jar (3½ inches diameter×3⅞ inches high) containing ten adult bed bugs Cimex lectularius of both sexes. The jar was then sealed with a plastic lid. Five replicates of ten bed bugs were exposed to each of the test compounds. The test formulations were assessed for 24 hour mortality. A control jar with no test compound was also included in the testing.
The test was repeated with several other test compounds in the same manner: […]

[3] = repeated test with other compounds

C=C[C@](C)(O)CCC=C(C)C [l-Linalool]
72 hr Mean Mortality % [1]: 68% | 24 hr Mean Mortality % ([2]; first test): 100.0%

CC(C)[C@@H]1CC[C@@H](C)C(=O)C1 [Tetrahydrocarvone]
72 hr Mean Mortality % [1]: 16.7% | 24 hr Mean Mortality % [2, 3]: 58.1%

C=C[C@@](C)(O)CCC=C(C)C [d-Linalool]
24 hr Mean Mortality % [2, 3]: 92.0%

l-Carvone
72 hr Mean Mortality % [1]: 46.7% | 24 hr Mean Mortality % ([2]; first test): 73.5%

C=C(C)[C@H]1CC=C(C)C(=O)C1 [d-Carvone]
24 hr Mean Mortality % [2, 3]: 47.8%

CC(O)c1ccccc1 (stereo not shown) [Styralyl alcohol]
72 hr Mean Mortality % [1]: 91.8% | 24 hr Mean Mortality % [2, 3]: 89.8%
